Where two headings read alike, the source gives them in different places.
What was measured:
HCV genotype 1b replicon = assay: HCV Replicon Assay; format: cell-based; details: Zluc cells (Huh-7-derived, HCV genotype 1b replicon, luciferase reporter), 72 hours, read-out: HCV Replicon EC50
Experimental: Huh-7-derived cell line (Zluc) that harbors an HCV genotype 1b replicon and a luciferase reporter gene was grown in Dulbecco's Modified Eagle Medium (DMEM) supplemented with 10% fetal bovine serum, 2 mM GlutaMAX, 1% MEM nonessential amino acids, 100 IU/mL penicillin, 100 μg/mL streptomycin, and 0.5 mg/mL Geneticin® (G418). For dose response testing the cells were seeded in 96-well plates at 7.5×10^3 cells per well in a volume of 50 μL, and incubated at 37° C./5% CO2. Drug solutions were made up freshly in Huh-7 media as 2× stocks. Ten additional 5-fold dilutions were prepared from these stocks in DMEM without G418. At least three hours after Zluc cells were seeded, drug treatment was initiated by adding 50 μL of drug dilutions to the plates in duplicate. Final concentrations of drug ranged from 100 μM to […]. Cells were then incubated at 37° C./5% CO2. Alternatively, compounds were tested at two concentrations (1 μM and 10 μM). […] For this, media was removed from the plates via gentle tapping. Fifty microliters of ONE-glo luciferase assay reagent was added to each well. The plates were shaken gently for 3 min at room temperature and luminescence was measured on a Victor^3 V 1420 multilabel counter (Perkin Elmer) with a 1 second read time using a 700 nm cut-off filter. The EC50 values were calculated from dose response curves from the resulting best-fit equations determined by Microsoft Excel and XLfit 4.1 software. When screening at two fixed concentrations, the results were expressed as % inhibition at 1 μM and 10 μM.

[1] = Stability in simulated intestinal fluid; format: in vitro ADME; details: 100 μM, 2 hours at 37° C., percent of the peak area at time zero
Experimental: (§1) Simulated gastric and intestinal fluids containing pepsin and pancreatin respectively were prepared according to the U.S. Pharmacopoeia USP291 procedure (www.pharmacopeia.cn/v29240/usp29nf24s0_ris1s126.html). Compounds (final concentration 100 μM) were incubated in duplicate in the appropriate fluid for 2 hours at 37° C. The samples were quenched with 200 μl cold acetonitrile, vortexed for 30 seconds and then centrifuged at 16,100 g for 10 min. The supernatants were analyzed by HPLC on a C-18 column with UV detection at 252 nm. The time 0 samples were prepared by adding SGF or SIF fluid to the quenching solvent followed by the test compound. Stability of the compounds was determined by peak area of the test compounds after incubation and calculated as percent of the peak area observed at time zero.

[2] = Stability in fresh human whole blood; format: in vitro ADME; details: 0.5 μM, percent unchanged test compound
Experimental: (§2) Stability of compounds were determined in fresh human whole blood with K2EDTA as the anticoagulant (stored refrigerated at 2-8° C. and used within 7 days of receipt). The experiment was conducted with three replicates for each time point. Whole blood, pre-incubated at 37° C. for 10-15 minutes, was fortified with a solution of test compound for a final concentration of 0.5 μM and mixed for 30 sec. At intervals (0, 0.5, 1 and 2 hr), three 50 μL aliquots were combined with 200 μL (each) of an ice-cold solution of the internal standard (carbutamide 500 ng/mL in acetonitrile). The samples were vortexed for 30 sec and then centrifuged at 16,100 g for 5 min. The supernatant was analyzed by LC-MS/MS. The MS peak area ratio of the test compounds versus the internal standard was calculated and percent unchanged test compound was calculated for each time point using this ratio.

Stability in mouse blood = format: in vitro ADME; details: on ice, percent unchanged test compound
Experimental: as §2
The stability in mouse blood was determined on ice at 0, 0.5 and 1 hr as herein.

fresh human hepatocytes = assay: Release of active metabolite in fresh human hepatocytes; format: in vitro ADME; details: 10 μM compound; for FHH TP Cmax: fresh human hepatocytes; for FHH TP AUC: fresh human hepatocytes, 6, 24 and 48 hours
Experimental: (§3) Plates of fresh human and mouse hepatocytes were obtained on ice. The medium was removed and replaced with hepatocyte culture medium (William's E supplemented with penicillin-streptomycin, 1% L-glutamine, 1% insulin-transferrin-selenium and 0.1 μM Dexamethasone (Invitrogen) or with Invitro GRO HI medium complemented with Torpedo antibiotics (Celsis)). Cells were left overnight in an incubator at 37° C. to acclimatize to culture and the medium.
(§4) Hepatocyte incubations were conducted at a final volume of 0.5 mL hepatocyte culture medium/well (0.8 million cells/well for human and 0.5 million cells/well for mouse; 12 well plate no overlay, collagen coat). Culture medium from overnight incubation of cells was removed and replaced with fresh medium, pre-warmed to 37° C., containing 10 μM of test compound from a stock solution in DMSO (final DMSO concentration was 0.1%). At each specific time point, incubation medium was removed and cell monolayers were carefully washed two times with ice-cold PBS. Following the last wash, all PBS was carefully removed and 1.0 mL of extraction solution (ice-cold 70% methanol/30% water) added. Cells were scraped off and suspended in the extraction solution, transferred to 2 mL polypropylene microfuge tubes and intracellular contents extracted overnight at −20° C.
(§5) After the overnight treatment the cellular extracts were prepared by centrifugation at 16,000×g for 10 min to remove cellular debris. The remaining sample was then dried using a refrigerated centrivap concentrator. Dry extracts were reconstituted in 1000 μL of HPLC-grade water and centrifuged at 16,000×g for 10 min. Aliquots (100 μL each) of the supernatant were transferred into a 96 well plate and internal standard (4 ng/mL final concentration) was added as the internal standard (IS) for LC-MS/MS analysis.
(§6) The incubation time points were 6, 24 and 48 hours for human hepatocytes and 1, 4, 8, 12 and 24 hours for mouse hepatocytes.

mouse hepatocytes = assay: Release of active metabolite in mouse hepatocytes; format: in vitro ADME; details: 10 μM compound; for MsH Cmax: mouse hepatocytes; for MsH AUC: mouse hepatocytes, 1, 4, 8, 12 and 24 hours
Experimental: as §3, §4, §5, §6

[3] = Plasma pharmacokinetics following a single oral dose in CD-1 mice; format: in vivo; details: single oral dose 25 mg/kg in PEG 200, CD-1 male mice; given at 1 μmol/kg; 25 mg/kg
Experimental: (§7) A single oral dose of test compound at 25 mg/kg in PEG 200 (dose volume 5 mL/kg) was administered to nine CD-1 male mice. Five untreated animals were used for the collection of control plasma and liver. Terminal plasma and liver samples were collected from three animals per time point at 4, 12 and 24 hours post dose. Liver specimens were collected from all animals immediately after the incision. Freezing forceps stored in liquid nitrogen were used to freeze the liver before excision.
Plasma samples were analyzed for 2′-methylguanosine (2′-MeG) by LC-MS/MS. The internal standard (IS) was 2′-MeG-D3. For protein precipitation and extraction, each plasma sample (50 μL) was treated with 500 μL of 0.2% formic acid in acetonitrile and 20 μL of the internal standard working solution. After vortexing and centrifugation, 500 μL of the sample extracts were transferred to a new plate, dried under N2 at ˜28° C. and reconstituted with 75 μL of 0.2% FA in water. The extracts were chromatographed on an Aquasil C18 column using a gradient system of 0.2% formic acid in water and acetonitrile. The analytes were detected and quantified by tandem mass spectrometry in positive ion mode on an MDS Sciex API5000 equipped with a Turbo Ionspray® interface. The calibration range was 0.500 (LLOQ) to 200 ng/mL in mouse plasma.

[4] = Liver pharmacokinetics following a single oral dose in CD-1 mice; format: in vivo; details: single oral dose 25 mg/kg in PEG 200, CD-1 male mice; given at 1 μmol/kg; 25 mg/kg
Experimental: as §7
Liver samples were analyzed for the active species 2′-methylguanosine triphosphate (2′-MeGTP) by LC-MS/MS. 2′-MeGTP levels were assayed by homogenizing (on ice) a known weight of mouse liver with 4× volume of 0.95 M trichloroacetic acid (TCA). Internal standard solution was added to the homogenate followed by neutralization with 20% ammonium hydroxide solution and addition of 500 μL 1% formic acid. The tissue samples were extracted by weak anion exchange solid phase extraction (SPE). Post extraction, the eluates were evaporated under nitrogen, followed by reconstitution before injection onto the LC-MS/MS system. The samples were chromatographed on a Luna NH2 column using a gradient system of ammonium acetate (1 mM to 20 mM and pH 8.0 to pH 10.0) in water and acetonitrile (70:30). The analyte was detected and quantified by tandem mass spectrometry in positive ion mode on an API4000 equipped with a Turbo Ionspray® interface. The calibration range was 10 to 10000 pmol/mL in mouse liver homogenate (50 to 50000 pmol/g of mouse liver).

Zluc cells = assay: cytotoxicity evaluation (CellTiter-Blue Cell Viability Assay); details: read-out: HCV Replicon CC50; Zluc cells, CellTiter-Blue
[5] = Stability in simulated gastric fluid; format: in vitro ADME; details: 100 μM, 2 hours at 37° C., percent of the peak area at time zero
Experimental: as §1

in vitro = details: human, HCV Replicon CC50, Zluc cells, CellTiter-Blue

| Compound | EC50 (HCV genotype 1b replicon) [nM] | Stability SIF [1] [%] | Stability WB_Human (37° C.; 2 hr) [2] [%] | Stability WB_Mouse (ice; 1 hr) (Stability in mouse blood) [%] | FHH TP Cmax (fresh human hepatocytes) | FHH TP AUC (fresh human hepatocytes) | MsH Cmax (mouse hepatocytes) [pmol/mill cells] | MsH AUC (mouse hepatocytes) [pmol · hr/mill cells] | Ms Plasma 2′-MeG AUC [3] [pmol · hr/mL at 1 μmol/kg] | Ms Plasma 2′-MeG Cmax [3] [pmol/mL at 1 μmol/kg] | Ms Liver 2′-MeGTP AUC [4] [pmol · hr/g at 1 μmol/kg] | CC50 (Zluc cells) [µM] | Stability SGF [5] [%] | EC50 (HCV genotype 1b replicon; Hepatitis C virus, 72 h) [nM] | CC50 (in vitro) [µM] |
| --- | --- | --- | --- | --- | --- | --- | --- | --- | --- | --- | --- | --- | --- | --- | --- |
| CCOc1nc(N)nc2c1ncn2[C@@H]1O[C@@H]2COP(=O)(OCCSC(=O)C(C)(C)CO)O[C@H]2[C@@]1(C)F (single isomer, unassigned) [Compound 5 Diastereomer 2] | < 250 | 77 | 46 | 93 | 448 pmol/mill cells | 9694 pmol · hr/mill cells | 302 | 8713 | 220 | 23 | 2600 | > 50 |  |  |  |
| CCOc1nc(N)nc2c1ncn2[C@@H]1O[C@@H]2COP(=O)(OCCCC(=O)OC(C)C)O[C@H]2[C@@]1(C)O (single isomer, unassigned) [Compound 1 Diastereomer 2] | < 250 | 83 | 87 | 1 | 278 pmol/mill cells | 10125 pmol · hr/mill cells | 330 | 8363 | 68 | 8.6 | 7400 | < 50 |  |  |  |
| CCOc1nc(N)nc2c1ncn2[C@@H]1O[C@@H]2COP(=O)(OCCSC(=O)C(C)(C)CO)O[C@H]2[C@@]1(C)O (single isomer, unassigned) [Compound 4 Diastereomer 2] | < 250 | 77 | 59 | 105 | 681 pmol/mill cells | 24086 pmol · hr/mill cells | 386 | 13328 | 24 | 1.7 | 1100 | < 50 |  |  |  |
| CCOc1nc(N)nc2c1ncn2[C@@H]1O[C@@H]2COP(=O)(OC[C@H](C)NC(=O)OC)O[C@H]2[C@@]1(C)F (single isomer, unassigned; diastereomer 2) [Compound 9 Diastereomer 2] | < 250 | 105 | 85 |  | BLD^a | BLD^a |  |  |  |  |  | > 50 | 85 |  |  |
| CCOc1nc(N)nc2c1ncn2[C@@H]1O[C@@H]2COP(=O)(OCCSC(=O)C(C)(C)CO)O[C@H]2[C@@]1(C)O (single isomer, unassigned) [Compound 4 Diastereomer 1] |  | 105 | 82 |  | 120 pmol/mill cells | 4110 pmol · hr/mill cells | 468 | 15078 | 6.7 | 0.5 | 480 |  |  | < 250 | < 50 |
| CCOc1nc(N)nc2c1ncn2[C@@H]1O[C@@H]2COP(=O)(OCCSSC(C)(C)C)O[C@H]2[C@@]1(C)F (single isomer, unassigned) [Compound 24 Diastereomer 2] | < 250 | 47 | 73 |  | 105 pmol/mill cells | 3031 pmol · hr/mill cells |  |  |  |  |  | < 50 | 30 |  |  |
| CCOc1nc(N)nc2c1ncn2[C@@H]1O[C@@H]2COP(=O)(OCCCC(=O)OC(C)C)O[C@H]2[C@@]1(C)O (single isomer, unassigned) [Compound 1 Diastereomer 1] |  | 105 | 73 | 79 | 85 pmol/mill cells | 3425 pmol · hr/mill cells |  |  | 9 | 0.56 | 560 |  |  | 250 to 1000 | > 50 |
